In patent US6831087B2, “Pyridine substituted isoquinoline derivatives” (Hoffmann-La Roche Inc., priority 2001, dated 2004):
Structures can show the parent of a compound that is named as a salt.

System: not given
Test: not given
Settings: not given

SMILES	melting point
Clc1cccc2c1CN(c1ccncc1)CC2 (as salt: fumarate) [Example 26, 8-Chloro-2-pyridin-4-yl-1,2,3,4-tetrahydro-isoquinoline]	178 to 179 °C
Cc1cc(N2CCc3ccccc3C2)cc(NCCO)n1 (as salt: fumarate) [Example 35, 2-[4-(3,4-Dihydro-1H-isoquinolin-2-yl)-6-methyl-pyridin-2-yl-amino]-ethanol]	160 °C
CN1COCc2c1ccnc2N1CCc2ccccc2C1 (as salt: hydrochloride) [Example 14, 5-(3,4-Dihydro-1H-isoquinolin-2-yl)-1-methyl-1,4-dihydro-2H-pyrido[4,3-d][1,3]oxazine]	220 to 221 °C
Clc1cccc2c1CCN(c1ccncc1)C2 (as salt: hydrochloride) [Example 25, 5-Chloro-2-pyridin-4-yl-1,2,3,4-tetrahydro-isoquinoline]	258 to 259 °C
Clc1ccc2c(c1)CCN(c1ccncc1)C2 (as salt: hydrochloride) [Example 27, 6-Chloro-2-pyridin-4-yl-1,2,3,4-tetrahydro-isoquinoline]	> 250 °C
Clc1ccc2c(c1)CN(c1ccncc1)CC2 (as salt: hydrochloride) [Example 28, 7-Chloro-2-pyridin-4-yl-1,2,3,4-tetrahydro-isoquinoline]	100 to 101 °C
CCOC(=O)C(=O)Nc1cc(N2CCc3ccccc3C2)cc(C)n1 (as salt: hydrochloride) [Example 33, N-[4-(3,4-Dihydro-1H-isoquinolin-2-yl)-6-methyl-pyridin-2-yl]-oxalamic acid ethyl ester]	> 160 °C (dec.)
CC1CN(c2cc(N)ccn2)Cc2ccccc21 (racemic) (as salt: fumarate) [Example 2, Rac.-2-(4-Methyl-3,4-dihydro-1H-isoquinolin-2-yl)-pyridin-4-yl-amine]	178 to 179 °C
CC1CN(c2ccncc2)Cc2ccccc21 (racemic) (as salt: hydrochloride) [Example 29, rac.-4-Methyl-2-pyridin-4-yl-1,2,3,4-tetrahydro-isoquinoline]	224 to 227 °C
Cc1cc(N2CCc3ccccc3C2)cc(NC(=O)CO)n1 [Example 34, N-[4-(3,4-Dihydro-1H-isoquinolin-2-yl)-6-methyl-pyridin-2-yl]-2-hydroxy-acetamide]	160 to 162 °C

More lines, now with the values ahead:

melting point	SMILES
73 to 74 °C	CCNc1ccnc(N2CCc3ccccc3C2)c1 (as salt: fumarate) [Example 16, [2-(3,4-Dihydro-1H-isoquinolin-2-yl)-pyridin-4-yl]-ethyl-amine]
155 to 156 °C	Cc1cc(N2CCc3ccccc3C2)ccn1 (as salt: fumarate) [Example 31, 2-(2-Methyl-pyridin-4-yl)-1,2,3,4-tetrahydro-isoquinoline]
> 270 °C	Cc1cc(N2CCc3ccccc3C2)cc(N)n1 (as salt: fumarate) [Example 32, 4-(3,4-Dihydro-1H-isoquinolin-2-yl)-6-methyl-pyridin-2-yl-amine]
109 to 110 °C	Nc1cc(N2CCc3ccccc3C2)nc2c1CCCC2 (as salt: hydrochloride) [Example 7, 2-(3,4-Dihydro-1H-isoquinolin-2-yl)-5,6,7,8-tetrahydro-quinolin-4-yl-amine]
192 to 195 °C	NCc1cccc(N2CCc3ccccc3C2)n1 (as salt: hydrochloride) [Example 22, C-[6-(3,4-Dihydro-1H-isoquinolin-2-yl)-pyridin-2-yl]-methylamine]
160 to 161 °C	Nc1cc(N2CCc3ccccc3C2)ccn1 [Example 30, 4-(3,4-Dihydro-1H-isoquinolin-2-yl)-pyridin-2-yl-amine]

Target: T1, NMDA-receptor subtype 2B (Rattus norvegicus, UniProt P35439+Q00960)
T1 construct: Membranes were prepared by homogenization of the whole brain minus cerebellum and medulla oblongata; from tissue; host or cells: rat whole brain minus cerebellum and medulla oblongata (membranes)
T1 sequence (Q00960 27-1482, other chains not shown): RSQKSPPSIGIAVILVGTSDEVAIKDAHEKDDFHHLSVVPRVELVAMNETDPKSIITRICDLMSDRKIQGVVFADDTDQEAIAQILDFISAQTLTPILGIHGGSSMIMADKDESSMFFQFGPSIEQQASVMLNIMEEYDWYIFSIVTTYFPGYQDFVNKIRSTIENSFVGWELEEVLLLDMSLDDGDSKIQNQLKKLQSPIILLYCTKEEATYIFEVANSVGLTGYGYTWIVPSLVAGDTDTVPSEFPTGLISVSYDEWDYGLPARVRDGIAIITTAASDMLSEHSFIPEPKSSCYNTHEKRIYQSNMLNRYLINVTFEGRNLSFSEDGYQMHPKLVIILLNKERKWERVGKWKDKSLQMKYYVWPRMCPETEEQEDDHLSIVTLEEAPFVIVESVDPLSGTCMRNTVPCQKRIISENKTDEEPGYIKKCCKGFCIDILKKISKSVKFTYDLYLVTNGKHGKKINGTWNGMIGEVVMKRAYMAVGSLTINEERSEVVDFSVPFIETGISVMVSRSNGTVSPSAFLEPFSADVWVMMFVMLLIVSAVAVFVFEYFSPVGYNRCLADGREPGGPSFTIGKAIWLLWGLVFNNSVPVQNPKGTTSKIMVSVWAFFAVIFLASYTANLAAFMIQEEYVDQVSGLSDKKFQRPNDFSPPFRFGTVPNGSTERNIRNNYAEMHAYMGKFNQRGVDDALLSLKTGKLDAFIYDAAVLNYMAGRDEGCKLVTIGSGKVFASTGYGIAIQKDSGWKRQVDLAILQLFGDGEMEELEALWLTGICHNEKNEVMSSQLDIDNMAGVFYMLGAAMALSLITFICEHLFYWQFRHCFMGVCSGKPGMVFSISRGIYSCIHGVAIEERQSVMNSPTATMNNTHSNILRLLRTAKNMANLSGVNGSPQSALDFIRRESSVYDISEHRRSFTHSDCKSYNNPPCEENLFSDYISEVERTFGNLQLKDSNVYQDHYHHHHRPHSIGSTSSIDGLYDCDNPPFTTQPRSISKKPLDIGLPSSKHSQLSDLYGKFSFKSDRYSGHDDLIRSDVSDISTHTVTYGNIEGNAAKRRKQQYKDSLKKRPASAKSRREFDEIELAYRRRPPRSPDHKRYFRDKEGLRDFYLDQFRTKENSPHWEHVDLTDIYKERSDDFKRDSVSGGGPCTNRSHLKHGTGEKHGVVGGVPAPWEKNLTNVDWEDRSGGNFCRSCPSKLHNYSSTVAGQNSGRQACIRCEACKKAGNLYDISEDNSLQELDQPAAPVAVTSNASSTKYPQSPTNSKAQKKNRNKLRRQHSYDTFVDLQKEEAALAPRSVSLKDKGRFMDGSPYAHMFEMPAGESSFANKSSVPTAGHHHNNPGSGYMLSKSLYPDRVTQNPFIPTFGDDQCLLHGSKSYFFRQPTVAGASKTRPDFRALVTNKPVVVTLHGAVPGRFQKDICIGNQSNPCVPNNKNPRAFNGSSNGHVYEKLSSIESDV
Test: 3H-Ro 25-6981 binding (displacement) on rat brain membranes
Settings: displacement of 5 nM 3H-Ro 25-6981, rat whole brain minus cerebellum and medulla oblongata membranes, 2 hours at 4° C., pH 7.4
Protocol: ^3H-Ro 25-6981 binding (Ro 25-6981 is [R-(R*,S*)]-α-(4-hydroxy-phenyl)-β-methyl-4-(phenyl-methyl)-1-piperidine propanol)
Male Füllinsdorf albino rats weighing between 150-200 g were used. Membranes were prepared by homogenization of the whole brain minus cerebellum and medulla oblongata with a Polytron (10.000 rpm, 30 seconds), in 25 volumes of a cold Tris-HCl 50 mM, EDTA 10 mM, pH 7.1 buffer. The homogenate was centrifuged at 48,000 g for 10 minutes at 4° C. The pellet was resuspended using the Polytron in the same volume of buffer and the homogenate was incubated at 37° C. for 10 minutes. After centrifugation the pellet was homogenized in the same buffer and frozen at −80° C. for at least 16 hours but not more than 10 days. For the binding assay the homogenate was thawed at 37° C., centrifuged and the pellet was washed three times as above in a Tris-HCl 5 mM, pH 7.4 cold buffer. The final pellet was resuspended in the same buffer and used at a final concentration of […].
^3H-Ro 25-6981 binding experiments were performed using a Tris-HCl 50 mM, pH 7.4 buffer. For displacement experiments 5 nM of ^3H-Ro 25-6981 were used and non specific binding was measured using 10 mM of tetrahydroisoquinoline and usually it accounts for 10% of the total. The incubation time was 2 hours at 4° C. and the assay was stopped by filtration on Whatmann GF/B glass fiber filters (Unifilter-96, Packard, Zurich, Switzerland). The filters were washed 5 times with cold buffer. The radioactivity on the filter was counted on a Packard Top-count microplate scintillation counter after addition of […] of microscint 40 (Canberra Packard S. A., Züirich, Switzerland).
The above procedure was performed to determine data for calculation of an IC50 value. The IC50 value is a concentration expressed in micromoles (μM) for a test compound at which 50% of the ligand (in this determination, ^3H-Ro 25-6981) bonded to the receptor is displaced. The binding ability of the compounds of the invention was measured in vitro using a minimum of 10 concentrations and repeated at least once. The specific binding at each concentration was then calculated as the % of the maximum specific binding (100%) obtained in the same experiment, in the absence of a test compound. Competitive displacement of ^3H-Ro 25-6981 was observed, with complete displacement of the radioligand from specific binding sites (usually about 0% of specific binding at the highest concentrations tested). An IC50 value was then calculated with all the ten datapoints (% of specific bound) by plotting the data on a semilogarithmic scale with a sigmoidal fit (Log of the molar concentration on X-axis vs. % of specific bound on the Y-axis) using Microsoft Excel fit software or Microcal Origin software. The pooled normalized values were analyzed using a non-linear regression calculation program which provide IC50 with their relative upper and lower 95% confidence limits.

SMILES	IC50
OCCNc1ccnc(N2CCc3ccccc3C2)c1 [Example 9, 2-[2-(3,4-Dihydro-1H-isoquinolin-2-yl)-pyridin-4-yl-amino]-ethanol]	6 nM
CCOC(=O)C(=O)Nc1cc(N2CCc3ccccc3C2)cc(C)n1 [Example 33, N-[4-(3,4-Dihydro-1H-isoquinolin-2-yl)-6-methyl-pyridin-2-yl]-oxalamic acid ethyl ester]	20 nM
Cc1cc(N2CCc3ccccc3C2)cc(NCCO)n1 [Example 35, 2-[4-(3,4-Dihydro-1H-isoquinolin-2-yl)-6-methyl-pyridin-2-yl-amino]-ethanol]	4 nM

The next lines start with the values.

IC50	SMILES
8 nM	Nc1ccnc(N2CCc3ccccc3C2)c1 [Example 1, 2-(3,4-Dihydro-1H-isoquinolin-2-yl)-pyridin-4-yl-amine]
11 nM	Cc1cnc(N2CCc3ccccc3C2)cc1N [Example 3, 2-(3,4-Dihydro-1H-isoquinolin-2-yl)-5-methyl-pyridin-4-yl-amine]
14 nM	Cc1cc(N)cc(N2CCc3ccccc3C2)n1 [Example 4, 2-(3,4-Dihydro-1H-isoquinolin-2-yl)-6-methyl-pyridin-4-yl-amine]
5.3 nM	CCc1cc(N)cc(N2CCc3ccccc3C2)n1 [Example 5, 2-(3,4-Dihydro-1H-isoquinolin-2-yl)-6-ethyl-pyridin-4-yl-amine]
11 nM	Nc1cc(CO)nc(N2CCc3ccccc3C2)c1 [Example 6, [4-Amino-6-(3,4-dihydro-1H-isoquinolin-2-yl)-pyridin-2-yl]-methanol]
11 nM	Cc1cc(NCCO)cc(N2CCc3ccccc3C2)n1 [Example 10, 2-[2-(3,4-Dihydro-1H-isoquinolin-2-yl)-6-methyl-pyridin-4-yl-amino]-ethanol]
4 nM	Nc1cc(N2CCc3ccccc3C2)ccn1 [Example 30, 4-(3,4-Dihydro-1H-isoquinolin-2-yl)-pyridin-2-yl-amine]
20 nM	Cc1cc(N2CCc3ccccc3C2)ccn1 [Example 31, 2-(2-Methyl-pyridin-4-yl)-1,2,3,4-tetrahydro-isoquinoline]
11 nM	Cc1cc(N2CCc3ccccc3C2)cc(N)n1 [Example 32, 4-(3,4-Dihydro-1H-isoquinolin-2-yl)-6-methyl-pyridin-2-yl-amine]
